Reference: patent US11267815B2, “Class of amino-substituted nitrogen-containing fused ring compounds, preparation method therefor, and use thereof” (SHANGHAI RINGENE BIOPHARMA CO., LTD., priority 2017, dated 2022)
Like-named read-outs stand apart in the source and are kept apart here.

How the values were obtained:
FGFR1 = FGFR1 (Homo sapiens (Human), UniProt P11362); assay: Inhibitory activity on kinase FGFR1 (Caliper mobility shift); type: biochemical; conditions: read-out: FGFR1 IC50
Method: (§1) (1). Preparation of 1×Kinase buffer; (2) Preparation of the gradient concentrations of the compounds: the concentration of the compounds to be tested started from 10 μM, which was 3-fold diluted to prepare 10 dilutions, and then tested in duplicated wells. The compounds were 100-fold serially diluted into 10 dilutions with different final concentrations in 96-well plates, each of which was further diluted with 1×Kinase buffer to prepare an intermediate dilution having a concentration of 5 times the final concentration; (3) adding 5 μL of each of the prepared compound solution into the compound wells of 384-well plates, and each concentration set single well; adding 5 μL of 5% DMSO into negative control wells and positive control wells respectively; (4) preparing a kinase solution having a concentration of 2.5 times the final concentration with 1×kinase buffer; (5) adding 10 μL of kinase solution at a concentration of 2.5 times the final concentration into the compound wells and the positive control wells respectively; and adding 10 μL of 1×Kinase buffer into the negative control wells; (6) centrifuging at 1000 rpm for 30 seconds, and incubating at room temperature for 10 minutes after shaking and mixing evenly; (7) preparing a mixed solution of ATP and Kinase substrate 22 having a concentration of 2.5 times the final concentration with 1×Kinase Buffer; (8) adding 10 μL of the mixed solution of ATP and substrate at a concentration of 2.5 times the final concentration to initiate the reaction; (9) Centrifuging the 384-well plates at 1000 rpm for 30 seconds, and incubating at 28° C. for corresponding time respectively after shaking and mixing; (10) adding 30 μL of stop detection solution to stop the kinase reaction, centrifuging at 1000 rpm for 30 seconds, and shaking and mixing the mixture evenly; (11) reading the conversion rate by Caliper Ezreader II. The dose-effect curve was fitted by the log (inhibitor) vs. response-variable slope of GraphPad Prism 5 with the log value of concentration as the X axis and the percentage inhibition rate as the Y axis, then the IC50 value of each compound on the enzyme activity was obtained.

FGFR4 = FGFR4 (Homo sapiens (Human), UniProt P22455); assay: Inhibitory activity on kinase FGFR4 (Caliper mobility shift); type: biochemical; conditions: read-out: FGFR4 IC50
FGFR4, sequence (P22455 22-802): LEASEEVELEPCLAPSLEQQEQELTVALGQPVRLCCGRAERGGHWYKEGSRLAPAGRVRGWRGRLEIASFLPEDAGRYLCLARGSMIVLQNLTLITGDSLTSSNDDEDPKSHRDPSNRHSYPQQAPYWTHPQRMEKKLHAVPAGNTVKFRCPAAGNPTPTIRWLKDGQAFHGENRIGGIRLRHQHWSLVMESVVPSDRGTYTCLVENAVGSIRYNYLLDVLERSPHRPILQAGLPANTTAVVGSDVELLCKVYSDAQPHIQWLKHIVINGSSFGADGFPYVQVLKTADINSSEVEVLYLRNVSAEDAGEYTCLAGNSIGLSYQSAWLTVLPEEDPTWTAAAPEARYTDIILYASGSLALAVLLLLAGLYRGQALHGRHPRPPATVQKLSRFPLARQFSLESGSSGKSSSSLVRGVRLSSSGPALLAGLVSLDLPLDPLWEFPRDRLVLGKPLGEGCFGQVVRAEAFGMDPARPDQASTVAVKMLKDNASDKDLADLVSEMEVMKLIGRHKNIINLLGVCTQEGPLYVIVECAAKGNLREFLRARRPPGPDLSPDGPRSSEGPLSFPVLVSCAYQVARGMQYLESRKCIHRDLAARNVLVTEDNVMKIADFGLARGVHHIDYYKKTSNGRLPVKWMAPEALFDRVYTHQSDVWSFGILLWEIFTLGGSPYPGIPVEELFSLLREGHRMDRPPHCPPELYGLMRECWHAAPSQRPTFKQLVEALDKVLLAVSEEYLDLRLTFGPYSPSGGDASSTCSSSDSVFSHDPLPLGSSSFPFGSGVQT
Method: as §1

Hep3B cells = assay: Hep3B cell proliferation (CellTiter-Glo, 72 hours); type: cell-based; conditions: read-out: Hep3B IC50
Method: 1. Test method: inoculating Hep3B cells (ATCC) in logarithmic growth phase at an appropriate density in a 96-well culture plate, with 100 μL per well. After overnight culture, different concentrations of compounds were added to stay for 72 hours, and menstruum control group (negative control) was set, and the incubation was performed under the condition of 5% CO2 at 37° C. Adding 10 mM compound stock solution to the cells, after the cells were incubated with the compounds for 72 hours, the effects of the compounds on cell proliferation were determined by CellTiter-Glo (Promega) method. 30 μL CTG reagent was added to each well and the resulting mixtures were placed in a 37° C. incubator for 2-4 hours. Then the plate was read by a full-wavelength microplate enzyme reader Envision at a […].
The inhibition rates (%) of the compounds on tumor cell growth were calculated by the following formula: inhibition rate (%)=(OD negative control well−OD administration well)/OD negative control well×100%. IC50 values were obtained by four parameters regression using Graphpad Prism 5 software.

FGFR1, sequence (P11362 22-822): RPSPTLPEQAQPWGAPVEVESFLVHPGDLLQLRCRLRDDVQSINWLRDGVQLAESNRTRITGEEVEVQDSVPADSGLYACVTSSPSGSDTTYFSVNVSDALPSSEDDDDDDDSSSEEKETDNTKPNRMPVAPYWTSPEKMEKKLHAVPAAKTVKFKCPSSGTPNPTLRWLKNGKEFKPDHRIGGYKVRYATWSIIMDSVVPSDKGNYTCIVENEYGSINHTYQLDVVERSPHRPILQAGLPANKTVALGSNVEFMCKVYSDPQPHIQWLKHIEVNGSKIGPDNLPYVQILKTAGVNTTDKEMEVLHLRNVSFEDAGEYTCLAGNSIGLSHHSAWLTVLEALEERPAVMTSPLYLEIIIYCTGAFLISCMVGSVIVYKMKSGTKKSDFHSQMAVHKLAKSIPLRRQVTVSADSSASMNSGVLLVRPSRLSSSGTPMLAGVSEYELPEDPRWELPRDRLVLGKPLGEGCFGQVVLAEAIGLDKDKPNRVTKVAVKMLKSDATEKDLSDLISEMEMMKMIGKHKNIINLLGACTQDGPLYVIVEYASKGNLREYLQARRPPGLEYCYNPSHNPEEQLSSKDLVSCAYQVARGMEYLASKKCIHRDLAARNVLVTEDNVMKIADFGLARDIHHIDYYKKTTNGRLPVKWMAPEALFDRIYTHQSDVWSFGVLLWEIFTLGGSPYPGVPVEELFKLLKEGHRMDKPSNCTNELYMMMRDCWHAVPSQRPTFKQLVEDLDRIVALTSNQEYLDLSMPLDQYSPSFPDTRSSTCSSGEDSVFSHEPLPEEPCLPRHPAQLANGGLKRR

Compound	IC50 (FGFR1)	IC50 (FGFR4)	IC50 (Hep3B cells; Homo sapiens, Hep3B)	IC50 (Hep3B cells)
C=CC(=O)N1CCN(CCCc2cn3c(n2)c(-c2c(Cl)c(OC)cc(OC)c2Cl)cc2cnc(NCC4CCOC4)nc23)CC1 (stereo not drawn) [Embodiment 11]	< 20 nM	< 20 nM	20 to 200 nM	–
C=CC(=O)N1CCN(CCCc2cn3c(n2)c(-c2c(Cl)c(OC)cc(OC)c2Cl)cc2cnc(NC)nc23)CC1(C)C [Embodiment 14]	< 20 nM	20 to 200 nM	20 to 200 nM	–
C=CC(=O)N1CCN(CCCc2cn3c(n2)c(-c2c(F)c(OC)cc(OC)c2F)cc2cnc(NC)nc23)CC1 [Embodiment 1]	< 20 nM	< 20 nM	< 20 nM	–
C=CC(=O)N1CCN(CCCc2cn3c(n2)c(-c2c(Cl)c(OC)cc(OC)c2Cl)cc2cnc(NCC)nc23)CC1 [Embodiment 8]	< 20 nM	< 20 nM	< 20 nM	–
C=CC(=O)N1CCN(Cc2cn3c(n2)c(-c2c(Cl)c(OC)cc(OC)c2Cl)cc2cnc(NC)nc23)CC1 [Embodiment 16, 1-(4-((6-(2,6-dichloro-3,5-phenyldimethoxyphenyl)-2-(methylamine)imidazo[1′,2′:1,6]pyrido[2,3-d]pyrimidin-8-yl)methyl)piperazine-1-yl)acrylamide]	< 20 nM	> 200 nM	20 to 200 nM	–
C=CC(=O)N1CCN(CCCc2cn3c(n2)c(-c2c(Cl)c(OC)cc(OC)c2Cl)cc2cnc(NCCN4CCN(C)CC4)nc23)CC1 [Embodiment 7, 1-(4-(3-(6-(2,6-dichloro-3,5-dimethoxyaniline)-2-((2-(4-methylpiperazine-1-yl)ethylethyl)amino)imidazo[1′,2′:1,6]pyrido[2,3-d]pyrimidin-8-yl)propyl)piperazine-1-yl)prop-2-en-1-one]	< 20 nM	< 20 nM	20 to 200 nM	–
C=CC(=O)N1CCN(CCCc2cn3c(n2)c(-c2c(Cl)c(OC)cc(OC)c2Cl)cc2cnc(NCC(O)CO)nc23)CC1 (stereo not drawn) [Embodiment 10]	< 20 nM	< 20 nM	20 to 200 nM	–
C=CC(=O)N1CCN(CCCc2cn3c(n2)c(-c2c(Cl)c(OC)cc(OC)c2Cl)cc2cnc(NC)cc23)CC1 [Embodiment 5]	< 20 nM	< 20 nM	< 20 nM	–
C=CC(=O)N1CCN(CCCc2cn3c(n2)c(-c2c(Cl)c(OC)cc(OC)c2Cl)cc2cnc(NCC(C)(C)O)nc23)CC1 [Embodiment 12]	< 20 nM	< 20 nM	20 to 200 nM	–
C=CC(=O)N1CCN(CCCc2cn3c(n2)c(-c2c(F)c(OC)cc(OC)c2F)cc2cnc(NC)cc23)CC1 [Embodiment 2]	< 20 nM	< 20 nM	< 20 nM	–
C=CC(=O)N1CCN(CCCc2cn3c(n2)c(-c2c(Cl)c(OC)cc(OC)c2Cl)cc2cnc(NCCC#N)nc23)CC1 [Embodiment 13]	< 20 nM	< 20 nM	20 to 200 nM	–
C=CC(=O)N1CCN(CCCc2cn3c(n2)c(-c2c(Cl)c(OC)cc(OC)c2Cl)cc2cnc(NCCOC)nc23)CC1 [Embodiment 6, 1-(4-(3-(6-(2,6-dichloro-3,5-dimethoxyaniline)-2-((2-methoxyethyl)amino)imidazo[1′,2′:1,6]pyrido[2,3-d]pyrimidin-8-yl)propyl)piperazine-1-yl)prop-2-en-1-one]	< 20 nM	< 20 nM	< 20 nM	–
C=CC(=O)N1CCN(CC(C)(C)Cc2cn3c(n2)c(-c2c(Cl)c(OC)cc(OC)c2Cl)cc2cnc(NC)nc23)CC1 [Embodiment 15, 1-(4-(3-(6-(2,6-dichloro-3,5-dimethoxyaniline)-2-(methylamine)imidazo[1′,2′:1,6]pyrido[2,3-d]pyrimidin-8-yl)-2,2-dimethylpropyl)piperazine-1-yl)prop-2-en-1-one]	< 20 nM	20 to 200 nM	20 to 200 nM	–
C=CC(=O)NCc1cccc(-c2cn3c(n2)c(-c2c(Cl)c(OC)cc(OC)c2Cl)cc2cnc(NC)nc23)c1 [Embodiment 19, N-(3-(6-(2,6-dichloro-3,5-dimethoxyphenyl)-2-(methylamino)imidazo[1′,2′:1,6]pyrido[2,3-d]pyrimidin-8-yl)benzyl)acrylamide]	< 20 nM	> 200 nM	20 to 200 nM	–
C=CC(=O)N1CCN(CCCc2cn3c(n2)c(-c2c(Cl)c(OC)cc(OC)c2Cl)cc2cnc(NCCN(C)C)nc23)CC1 [Embodiment 9]	< 20 nM	< 20 nM	20 to 200 nM	–
C=CC(=O)N1CCN(c2cccc(-c3cn4c(n3)c(-c3c(Cl)c(OC)cc(OC)c3Cl)cc3cnc(NC)nc34)c2)CC1 [Embodiment 18, 1-(4-(3-(6-(2,6-dichloro-3,5-dimethoxyphenyl)-2-(methylamine)imidazo[1′,2′:1,6]pyrido[2,3-d]pyrimidin-8-yl)phenyl)piperazine-1-yl)acrylamide]	< 20 nM	> 200 nM	–	20 to 200 nM
C=CC(=O)N1CCN(CCCc2cn3c(n2)c(-c2c(Cl)c(OC)cc(OC)c2Cl)cc2cnc(NCC4CC4)nc23)CC1 [Embodiment 4]	< 20 nM	< 20 nM	< 20 nM	–
